Structures can show the parent of a compound that is named as a salt. Where two headings read alike, the source gives them in different places.
What was measured:
HeLa cells = test: CCK-8 antiproliferative assay, HeLa; type: cell-based, human; settings: for IC50: Homo sapiens, HeLa, read-out: IC50 HeLa; for SIHeLa, selectivity index between L-02 and HeLa: SI = IC50(L-02)/IC50(HeLa)
Procedure: (§1) All cells were cultured in Dulbecco’s Modified Eagle’s Medium (DMEM) (Burlington, MA, USA) or Roswell Park Memorial Institute (RPMI)-1640 medium containing 10% fetal bovine serum and 1% penicillin/streptomycin in an incubator at 37 °C and 5% CO2. […] Cell suspension with a concentration of 8 × 10^4 cells/mL was prepared after cell counting. 100 μL cell suspension was added to each well of the 96-well plate and then placed in an incubator overnight. Most of the derivatives were configured into 80 mM, 20 mM or 4 mM stock solution in DMSO, and the stock solution concentration of BFA and paclitaxel was 0.4 mM. […] The medium in each well was discarded, and 100 μL of gradient diluted derivative solution was added (the control group was added with serum-free medium).

HepG2 cells = test: CCK-8 antiproliferative assay, HepG2; type: cell-based; settings: Homo sapiens, read-out: IC50 HepG2
Procedure: as §1

A375 cells = test: CCK-8 antiproliferative assay, A375; type: cell-based; settings: Homo sapiens, read-out: IC50 A375
Procedure: as §1

L-02 cells = test: CCK-8 cytotoxicity assay, normal liver L-02; type: cell-based; settings: Homo sapiens, read-out: IC50 L-02
Procedure: as §1

A549 cells = test: CCK-8 antiproliferative assay, A549; type: cell-based; settings: Homo sapiens, read-out: IC50 A549
Procedure: as §1

MDA-MB-231 cells = test: CCK-8 antiproliferative assay, MDA-MB-231; type: cell-based; settings: Homo sapiens, read-out: IC50 MDA-MB-231
Procedure: as §1

[1] = CCK-8, 48 h, mean ± SD of three experiments
[2] = HepG2, CCK-8, 48 h, mean ± SD of three experiments
[3] = A-375, CCK-8, 48 h, mean ± SD of three experiments
[4] = L02, CCK-8, 48 h, normal liver cells, mean ± SD of three experiments
[5] = A549, CCK-8, 48 h, mean ± SD of three experiments
[6] = MDA-MB-231, CCK-8, 48 h, mean ± SD of three experiments

| Structure (SMILES) | IC50 (HeLa cells; [1]) [µM] | SIHeLa, selectivity index between L-02 and HeLa (HeLa cells) | IC50 (HepG2 cells; [2]) [µM] | IC50 (A375 cells; [3]) [µM] | IC50 (L-02 cells; [4]) [µM] | IC50 (A549 cells; [5]) [µM] | IC50 (MDA-MB-231 cells; [6]) [µM] | IC50 (HeLa cells; 48 h) [µM] | IC50 (HepG2 cells; HepG2, 48 h) [µM] | IC50 (A375 cells; A-375, 48 h) [µM] | IC50 (L-02 cells; L02, 48 h) [µM] | IC50 (A549 cells; A549, 48 h) [µM] | IC50 (MDA-MB-231 cells; MDA-MB-231, 48 h) [µM] |
| --- | --- | --- | --- | --- | --- | --- | --- | --- | --- | --- | --- | --- | --- |
| C[C@H]1CCC/C=C/[C@@H]2C[C@H](O)C[C@H]2[C@H](OC(=O)/C=C\C(=O)OCC#CCOC(=O)c2ccc(N=C=S)cc2)/C=C/C(=O)O1 [Compound 9i, (1R,2E,6S,10E,11aS,13S,14aR)-13-Hydroxy-6-methyl-4-oxo-1,6,7,8,9,11a,12,13,14,14a-decahydro-4H-cyclopenta[f][1]oxacyclotridecin-1-yl (4-((4-isothiocyanatobenzoyl)oxy)but-2-yn-1-yl) maleate] | 6.59 ± 0.75 | 4.27 | 11.9 ± 0.32 | 9.1 ± 0.46 | 28.14 ± 0.14 | 10.3 ± 0.35 | 10 ± 0.26 |  |  |  |  |  |  |
| C[C@H]1CCC/C=C/[C@@H]2C[C@H](OC(=O)/C=C\C(=O)OCCOCCOC(=O)c3ccc(N=C=S)cc3)C[C@H]2[C@H](OC(=O)/C=C\C(=O)OCCOCCOC(=O)c2ccc(N=C=S)cc2)/C=C/C(=O)O1 [Compound 8j, Bis(2-(2-((4-isothiocyanatobenzoyl)oxy)ethoxy)ethyl) O,O’-((1R,2E,6S,10E,11aS,13S,14aR)-6-methyl-4-oxo-1,6,7,8,9,11a,12,13,14,14a-decahydro-4H-cyclopenta[f][1]oxacyclotridecine-1,13-diyl) dimaleate] | 30.6 ± 2.12 | 0.70 | > 40 | > 40 | 21.27 ± 0.16 | 23.79 ± 0.02 | > 40 |  |  |  |  |  |  |
| C[C@H]1CCC/C=C/[C@@H]2C[C@H](OC(=O)c3ccc(N=C=S)cc3)C[C@H]2[C@H](OC(=O)c2ccc(N=C=S)cc2)/C=C/C(=O)O1 [Compound 5, (1R,2E,6S,10E,11aS,13S,14aR)-6-methyl-4-oxo-1,6,7,8,9,11a,12,13,14,14a-decahydro-4H-cyclopenta[f][1]oxacyclotridecine-1,13-diyl bis(4-isothiocyanatobenzoate)] | > 40 |  | > 40 | > 40 | > 80 | 20.9 ± 1.42 | > 40 |  |  |  |  |  |  |
| C[C@H]1CCC/C=C/[C@@H]2C[C@H](O)C[C@H]2[C@H](OC(=O)CCC(=O)OCCCCOC(=O)c2ccc(N=C=S)cc2)/C=C/C(=O)O1 [Compound 9b, (1R,2E,6S,10E,11aS,13S,14aR)-13-Hydroxy-6-methyl-4-oxo-1,6,7,8,9,11a,12,13,14,14a-decahydro-4H-cyclopenta[f][1]oxacyclotridecin-1-yl (4-((4-isothiocyanatobenzoyl)oxy)butyl) succinate] | 2.28 ± 0.04 | 4.63 | 6.54 ± 0.18 | 2.79 ± 0.25 | 10.6 ± 0.6 | 2.84 ± 0.02 | 2.23 ± 0.04 |  |  |  |  |  |  |
| C[C@H]1CCC/C=C/[C@@H]2C[C@H](OC(=O)/C=C\C(=O)OCC#CCOC(=O)c3ccc(N=C=S)cc3)C[C@H]2[C@H](OC(=O)/C=C\C(=O)OCC#CCOC(=O)c2ccc(N=C=S)cc2)/C=C/C(=O)O1 [Compound 8i, Bis(4-((4-isothiocyanatobenzoyl)oxy)but-2-yn-1-yl) O,O’-((1R,2E,6S,10E,11aS,13S,14aR)-6-methyl-4-oxo-1,6,7,8,9,11a,12,13,14,14a-decahydro-4H-cyclopenta[f][1]oxacyclotridecine-1,13-diyl) dimaleate] | > 40 |  | > 40 | > 40 | > 80 | > 40 | > 40 |  |  |  |  |  |  |
| C[C@H]1CCC/C=C/[C@@H]2C[C@H](OC(=O)CCC(=O)OCCCCOC(=O)c3ccc(N=C=S)cc3)C[C@H]2[C@H](OC(=O)CCC(=O)OCCCCOC(=O)c2ccc(N=C=S)cc2)/C=C/C(=O)O1 [Compound 8b, Bis(4-((4-isothiocyanatobenzoyl)oxy)butyl) O,O’-((1R,2E,6S,10E,11aS,13S,14aR)-6-methyl-4-oxo-1,6,7,8,9,11a,12,13,14,14a-decahydro-4H-cyclopenta[f][1]oxacyclotridecine-1,13-diyl) disuccinate] | 16.4 ± 1.35 | >4.88 | > 40 | > 40 | > 80 | > 40 | > 40 |  |  |  |  |  |  |
| C[C@H]1CCC/C=C/[C@@H]2C[C@H](O)C[C@H]2[C@H](OC(=O)CCC(=O)Oc2ccc(OC(=O)c3ccc(N=C=S)cc3)cc2)/C=C/C(=O)O1 [Compound 9f, (1R,2E,6S,10E,11aS,13S,14aR)-13-Hydroxy-6-methyl-4-oxo-1,6,7,8,9,11a,12,13,14,14a-decahydro-4H-cyclopenta[f][1]oxacyclotridecin-1-yl (4-((4-isothiocyanatobenzoyl)oxy)phenyl) succinate] | 13.1 ± 0.45 | 1.91 | 27.7 ± 0.47 | 21.3 ± 0.33 | 25.1 ± 0.82 | 16.18 ± 0.06 | 32.1 ± 1.03 |  |  |  |  |  |  |
| O=C(O)c1ccc(N=C=S)cc1 [Compound 2, 4-Carboxyphenyl isothiocyanate, reference compound] |  | 1.48 |  |  |  |  |  | 45.7 ± 1.74 | > 100 | 43 ± 3.34 | 67.8 ± 2 | 79.2 ± 2.52 | 82.1 ± 2.7 |
| C[C@H]1CCC/C=C/[C@@H]2C[C@H](OC(=O)CCC(=O)Oc3ccc(OC(=O)c4ccc(N=C=S)cc4)cc3)C[C@H]2[C@H](OC(=O)CCC(=O)Oc2ccc(OC(=O)c3ccc(N=C=S)cc3)cc2)/C=C/C(=O)O1 [Compound 8f, Bis(4-((4-isothiocyanatobenzoyl)oxy)phenyl) O,O’-((1R,2E,6S,10E,11aS,13S,14aR)-6-methyl-4-oxo-1,6,7,8,9,11a,12,13,14,14a-decahydro-4H-cyclopenta[f][1]oxacyclotridecine-1,13-diyl) disuccinate] | > 40 |  | > 40 | > 40 | > 80 | > 40 | > 40 |  |  |  |  |  |  |
| C[C@H]1CCC/C=C/[C@@H]2C[C@H](O)C[C@H]2[C@H](OC(=O)/C=C\C(=O)OCCOC(=O)c2ccc(N=C=S)cc2)/C=C/C(=O)O1 [Compound 9g, (1R,2E,6S,10E,11aS,13S,14aR)-13-Hydroxy-6-methyl-4-oxo-1,6,7,8,9,11a,12,13,14,14a-decahydro-4H-cyclopenta[f][1]oxacyclotridecin-1-yl (2-((4-isothiocyanatobenzoyl)oxy)ethyl) maleate] | 3.63 ± 0.23 | 5.75 | 12.8 ± 0.15 | 11.9 ± 0.54 | 20.9 ± 0.49 | 10.4 ± 0.59 | 7.51 ± 0.07 |  |  |  |  |  |  |
| C[C@H]1CCC/C=C/[C@@H]2C[C@H](O)C[C@H]2[C@H](OC(=O)CCC(=O)OCCOC(=O)c2ccc(N=C=S)cc2)/C=C/C(=O)O1 [Compound 9a, (1R,2E,6S,10E,11aS,13S,14aR)-13-Hydroxy-6-methyl-4-oxo-1,6,7,8,9,11a,12,13,14,14a-decahydro-4H-cyclopenta[f][1]oxacyclotridecin-1-yl (2-((4-isothiocyanatobenzoyl)oxy)ethyl) succinate] | 2.69 ± 0.3 | 5.75 | 5.93 ± 0.03 | 2.07 ± 0.09 | 15.5 ± 1.22 | 8.29 ± 0.1 | 8.04 ± 0.01 |  |  |  |  |  |  |
| C[C@H]1CCC/C=C/[C@@H]2C[C@H](O)C[C@H]2[C@H](OC(=O)/C=C\C(=O)OCCOCCOC(=O)c2ccc(N=C=S)cc2)/C=C/C(=O)O1 [Compound 9j, (1R,2E,6S,10E,11aS,13S,14aR)-13-Hydroxy-6-methyl-4-oxo-1,6,7,8,9,11a,12,13,14,14a-decahydro-4H-cyclopenta[f][1]oxacyclotridecin-1-yl (2-(2-((4-isothiocyanatobenzoyl)oxy)ethoxy)ethyl) maleate] | 1.71 ± 0.02 | 6.29 | 3.69 ± 0.14 | 1.5 ± 0.05 | 10.8 ± 0.57 | 4.61 ± 0.12 | 2.27 ± 0.03 |  |  |  |  |  |  |
| C[C@H]1CCC/C=C/[C@@H]2C[C@H](OC(=O)CCC(=O)OCCOCCOC(=O)c3ccc(N=C=S)cc3)C[C@H]2[C@H](OC(=O)CCC(=O)OCCOCCOC(=O)c2ccc(N=C=S)cc2)/C=C/C(=O)O1 [Compound 8d, Bis(2-(2-((4-isothiocyanatobenzoyl)oxy)ethoxy)ethyl) O,O’-((1R,2E,6S,10E,11aS,13S,14aR)-6-methyl-4-oxo-1,6,7,8,9,11a,12,13,14,14a-decahydro-4H-cyclopenta[f][1]oxacyclotridecine-1,13-diyl) disuccinate] | 7.67 ± 0.33 |  | > 40 | 22.8 ± 1.58 | > 80 | > 40 | > 40 |  |  |  |  |  |  |
